Consider 14 molecules from patent US12365687B2 (Hoffmann-La Roche Inc., priority 2021, dated 2025).

As usually defined, the Ki is the dissociation constant of the complex between target and ligand, obtained from inhibition or displacement. High values mean a looser hold on the target, low ones a stronger hold on the target.

Test [1] addresses human GABAA α5β2γ1 receptor (Homo sapiens (Human), UniProt P31644+Q8N1C3). In words: Radioligand binding assay for γ1-containing GABAA subtypes, [3H]RO7239181 competition (α5β2γ1).
The target in test [2] is human GABAA α2β2γ1 receptor (Homo sapiens (Human), UniProt P47869+Q8N1C3). Briefly: Radioligand binding assay for γ1-containing GABAA subtypes, [3H]RO7239181 competition (α2β2γ1).
Test [3] has as its target human GABAA α1β3γ2 receptor (Homo sapiens (Human), UniProt P14867+P18507). Briefly: Radioligand binding assay for γ2-containing GABAA subtypes, [3H]Flumazenil competition (α1β3γ2). To be noted: for γ2/γ1 Selectivity Ratio: Ki α1β3γ2 (nM)/Ki α2β2γ1 (nM); for LogSel: Log[Ki α1β3γ2 (nM)/Ki α2β2γ1 (nM)].
Test [4] addresses α2β2γ1 GABAA receptor subtype (Homo sapiens (Human), UniProt P47869+Q8N1C3). In words: Two-electrode voltage clamp electrophysiology in Xenopus oocytes expressing GABAA receptors (modulation of GABA EC20 current). In kind it is cell-based. The following applies: for Efficacy (GABA)%: % modulation of GABA EC20 = 100*(Fold increase-1), α2β2γ1 oocytes, compound at approx. 30-fold Ki; for Fold increase h-GABA-A α2β2γ1 oocyte @ 30-fold Ki: Xenopus oocytes expressing α2β2γ1, compound at approx. 30-fold its Ki α2β2γ1, GABA EC20 current. A digest of the protocol:
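Each concentration was tested on ≥3 oocytes held at −80 mV at room temperature, recorded 3-5 days post-injection. A control and a test response to EC20 GABA (1.5 min each) were superimposed and their point-by-point ratio taken. Peak ratio reported as % modulation of GABA EC20 = 100×(fold increase−1).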

Setting [5] is: Ki h-GABAA α2β2γ1, [3H]RO7239181 competition binding, human GABAA α2β2γ1.
The mark [6] stands for this setting: Ki h-GABAA α2β2γ1, displacement of [3H]RO7239181, membranes of HEK293F cells expressing human receptors, means of two determinations.

In test [1], `C[C@@H]1N=C(c2c(F)cccc2F)c2c(ccc(Cl)c2Cl)-n2nc(C(=O)NC3(C#N)CC3)nc21` [Example 61, (4S)-7,8-dichloro-N-(1-cyanocyclopropyl)-6-(2,6-difluorophenyl)-4-methyl-4H-[1,2,4]triazolo[1,5-a][1,4]benzodiazepine-2-carboxamide] yielded a Ki of 1.45 nM. Further, affinity in test [2] (setting [5]) was put at a Ki of 4.2 nM. This molecule also returned a Ki in test [2] (setting [6]) of 4.18 nM. Besides, in test [3], the affinity, expressed as Ki, was 585 nM; the “γ2/γ1 Selectivity Ratio” value came to 140.0; the LogSel amounted to 2.15. In test [4], the “Efficacy (GABA)%” value came out at 99% and the “Fold increase h-GABA-A α2β2γ1 oocyte @ 30-fold Ki” value is 1.99.
For `COC1CN(C(=O)c2nc3n(n2)-c2ccc(Cl)c(Cl)c2C(c2ncccc2F)=NC3)C1` [Example 62, [7,8-dichloro-6-(3-fluoro-2-pyridyl)-4H-[1,2,4]triazolo[1,5-a][1,4]benzodiazepin-2-yl]-(3-methoxyazetidin-1-yl)methanone], the inhibitory constant (Ki) in test [1] turned out to be 3.7 nM; in test [2] (setting [5]), 9 nM; in test [2] (setting [6]), 9 nM; in test [3], 773 nM. For the same molecule, the “γ2/γ1 Selectivity Ratio” value in test [3] is reported as 85.7. This molecule also came in with a LogSel in test [3] of 1.93. Also, in test [4], the “Efficacy (GABA)%” value is 93%. Also, the “Fold increase h-GABA-A α2β2γ1 oocyte @ 30-fold Ki” value in test [4] came out at 1.93.
With `C[C@H](O)CNC(=O)c1nc2n(n1)-c1ccc(Cl)c(Cl)c1C(c1c(F)cccc1F)=N[C@H]2C` [Example 63, (4S)-7,8-dichloro-6-(2,6-difluorophenyl)-4-methyl-N-[(2S)-2-hydroxypropyl]-4H-[1,2,4]triazolo[1,5-a][1,4]benzodiazepine-2-carboxamide], the Ki in test [1] was found to be 1.33 nM. Further, the Ki in test [2] (setting [5]) came to 4.2 nM. Further, in test [2] (setting [6]), the Ki was 4.25 nM. In test [3], the Ki was 606 nM, the “γ2/γ1 Selectivity Ratio” value was 142.6 and the LogSel turned out to be 2.15. For the same molecule, in test [4], the “Efficacy (GABA)%” value came to 79% and the “Fold increase h-GABA-A α2β2γ1 oocyte @ 30-fold Ki” value is recorded as 1.79.
In test [1], `CCNC(=O)c1nc2n(n1)-c1ccc(Cl)c(Cl)c1C(c1c(F)cccc1F)=N[C@H]2C` [Example 64, (4S)-7,8-dichloro-6-(2,6-difluorophenyl)-N-ethyl-4-methyl-4H-[1,2,4]triazolo[1,5-a][1,4]benzodiazepine-2-carboxamide] had a Ki of 1.16 nM. The molecule further came in with an inhibitory constant (Ki) in test [2] (setting [5]) of 5.4 nM. This molecule yielded a Ki in test [2] (setting [6]) of 5.4 nM. Besides, in test [3], the Ki was 889 nM, the “γ2/γ1 Selectivity Ratio” value came out at 165.6 and the LogSel came to 2.22. Moreover, in test [4], the “Efficacy (GABA)%” value came to 75% and the “Fold increase h-GABA-A α2β2γ1 oocyte @ 30-fold Ki” value came out at 1.75.
As for `C[C@@H]1N=C(c2c(F)cccc2F)c2c(ccc(Cl)c2Cl)-n2nc(C(=O)NC[C@@H](C)O)nc21` [Example 65, (4S)-7,8-dichloro-6-(2,6-difluorophenyl)-4-methyl-N-[(2R)-2-hydroxypropyl]-4H-[1,2,4]triazolo[1,5-a][1,4]benzodiazepine-2-carboxamide], affinity in test [1] was put at a Ki of 0.5 nM. Also, in test [2] (setting [5]), the affinity, expressed as Ki, was 5.8 nM. In test [2] (setting [6]), the Ki was 5.8 nM. Moreover, in test [3], the affinity corresponds to a Ki of 492 nM, the “γ2/γ1 Selectivity Ratio” value turned out to be 84.8 and the LogSel came out at 1.93. Moreover, in test [4], the “Efficacy (GABA)%” value was found to be 80% and the “Fold increase h-GABA-A α2β2γ1 oocyte @ 30-fold Ki” value is 1.80.
`C[C@@H]1N=C(c2c(F)cccc2F)c2c(ccc(Cl)c2Cl)-n2nc(N3CC(O)C3)nc21` [Example 66, 1-[(4S)-7,8-dichloro-6-(2,6-difluorophenyl)-4-methyl-4H-[1,2,4]triazolo[1,5-a][1,4]benzodiazepin-2-yl]azetidin-3-ol] returned an inhibition constant (Ki) in test [1] of 1.24 nM. This molecule also showed a Ki in test [2] (setting [5]) of 6.1 nM. In test [2] (setting [6]), the Ki amounted to 6.1 nM. Moreover, in test [3], the Ki came out at 241 nM, the “γ2/γ1 Selectivity Ratio” value is 39.7 and the LogSel was 1.60. Moreover, in test [4], the “Efficacy (GABA)%” value is 58% and the “Fold increase h-GABA-A α2β2γ1 oocyte @ 30-fold Ki” value turned out to be 1.58.
On to `CC(=O)NCc1nc2n(n1)-c1ccc(Cl)c(Cl)c1C(c1c(F)cccc1F)=N[C@H]2C` [Example 67, N-[[(4S)-7,8-dichloro-6-(2,6-difluorophenyl)-4-methyl-4H-[1,2,4]triazolo[1,5-a][1,4]benzodiazepin-2-yl]methyl]acetamide], for which the Ki in test [1] was 0.79 nM. This molecule also came in with a Ki in test [2] (setting [5]) of 5.2 nM. This molecule also returned a Ki in test [2] (setting [6]) of 5.2 nM. In addition, in test [3], the Ki was 503 nM, the “γ2/γ1 Selectivity Ratio” value is given as 96.5 and the LogSel worked out at 1.98. Moreover, in test [4], the “Efficacy (GABA)%” value is reported as 47% and the “Fold increase h-GABA-A α2β2γ1 oocyte @ 30-fold Ki” value was 1.47.
As to `C[C@@H]1N=C(c2c(F)cccc2F)c2c(ccc(Cl)c2Cl)-n2cc(C(=O)N3CC(O)C3)nc21` [Example 68, (3-hydroxyazetidin-1-yl)-[(4S)-7,8-dichloro-6-(2,6-difluorophenyl)-4-methyl-4H-imidazo[1,2-a][1,4]benzodiazepin-2-yl]methanone], in test [1], the Ki is 1.48 nM. The molecule also gave a Ki in test [2] (setting [5]) of 7.2 nM. This molecule registered a Ki in test [2] (setting [6]) of 7.2 nM. Besides, in test [3], the Ki was 318 nM, the “γ2/γ1 Selectivity Ratio” value was determined as 44.0 and the LogSel is given as 1.64. Besides, in test [4], the “Efficacy (GABA)%” value amounted to 107% and the “Fold increase h-GABA-A α2β2γ1 oocyte @ 30-fold Ki” value was 2.07.
For `C[C@@H]1N=C(c2c(F)cccc2F)c2c(ccc(Cl)c2Cl)-n2nc(S(N)(=O)=O)nc21` [Example 69, (4S)-7,8-dichloro-6-(2,6-difluorophenyl)-4-methyl-4H-[1,2,4]triazolo[1,5-a][1,4]benzodiazepine-2-sulfonamide], the Ki in test [1] stood at 0.77 nM; in test [2] (setting [5]), 19.2 nM; in test [2] (setting [6]), 19.2 nM; in test [3], 1150 nM. For the same molecule, in test [3], the “γ2/γ1 Selectivity Ratio” value came to 60.1. Besides, in test [3], the LogSel is 1.78. The “Efficacy (GABA)%” value in test [4] was 97%. Moreover, in test [4], the “Fold increase h-GABA-A α2β2γ1 oocyte @ 30-fold Ki” value came to 1.97.
Take `C[C@@H]1N=C(c2c(F)cccc2F)c2c(ccc(Cl)c2Cl)-n2cc(C(=O)N3CCC3)nc21` [Example 70, azetidin-1-yl-[(4S)-7,8-dichloro-6-(2,6-difluorophenyl)-4-methyl-4H-imidazo[1,2-a][1,4]benzodiazepin-2-yl]methanone]: in test [1], the Ki came to 1.08 nM. Also, in test [2] (setting [5]), the Ki was 18.7 nM. The molecule further had a Ki in test [2] (setting [6]) of 18.7 nM. In test [3], affinity was put at a Ki of 500 nM, the “γ2/γ1 Selectivity Ratio” value turned out to be 26.7 and the LogSel was determined as 1.43. In test [4], the “Efficacy (GABA)%” value worked out at 73% and the “Fold increase h-GABA-A α2β2γ1 oocyte @ 30-fold Ki” value was 1.73.
On to `C[C@@H]1N=C(c2c(F)cccc2F)c2c(ccc(Cl)c2Cl)-n2cc(C(=O)N3CC(C#N)C3)nc21` [Example 71, 1-[(4S)-7,8-dichloro-6-(2,6-difluorophenyl)-4-methyl-4H-imidazo[1,2-a][1,4]benzodiazepine-2-carbonyl]azetidine-3-carbonitrile], for which, in test [1], the affinity, expressed as Ki, was 1.84 nM. The affinity in test [2] (setting [5]), expressed as Ki, was 11.9 nM. Also, the affinity in test [2] (setting [6]) corresponds to a Ki of 11.9 nM. For the same molecule, in test [3], the Ki came to 389 nM, the “γ2/γ1 Selectivity Ratio” value is reported as 32.8 and the LogSel is 1.52. In test [4], the “Efficacy (GABA)%” value is recorded as 51% and the “Fold increase h-GABA-A α2β2γ1 oocyte @ 30-fold Ki” value turned out to be 1.51.
For `C[C@@H]1N=C(c2c(F)cccc2F)c2c(ccc(Cl)c2Cl)-n2nc(C(=O)N3CC(CF)C3)nc21` [Example 72, [3-(fluoromethyl)azetidin-1-yl]-[(4S)-7,8-dichloro-6-(2,6-difluorophenyl)-4-methyl-4H-[1,2,4]triazolo[1,5-a][1,4]benzodiazepin-2-yl]methanone], the affinity in test [1], expressed as Ki, was 1.1 nM. Also, affinity in test [2] (setting [5]) was put at a Ki of 7.2 nM. Moreover, the Ki in test [2] (setting [6]) was found to be 7.2 nM. In addition, in test [3], affinity was put at a Ki of 727 nM, the “γ2/γ1 Selectivity Ratio” value is listed as 100.6 and the LogSel was 2.00. In addition, in test [4], the “Efficacy (GABA)%” value turned out to be 44% and the “Fold increase h-GABA-A α2β2γ1 oocyte @ 30-fold Ki” value amounted to 1.44.
In turn, `CNS(=O)(=O)c1nc2n(n1)-c1ccc(Cl)c(Cl)c1C(c1c(F)cccc1F)=N[C@H]2C` [Example 73, (4S)-7,8-dichloro-6-(2,6-difluorophenyl)-N,4-dimethyl-4H-[1,2,4]triazolo[1,5-a][1,4]benzodiazepine-2-sulfonamide] returned a Ki in test [1] of 2.97 nM. In test [2] (setting [5]), this molecule came in with a Ki of 49.1 nM. In test [2] (setting [6]), the Ki was 49.1 nM. In test [3], the Ki was found to be 2170 nM, the “γ2/γ1 Selectivity Ratio” value was 44.1 and the LogSel is listed as 1.64. In test [4], the “Efficacy (GABA)%” value was 58% and the “Fold increase h-GABA-A α2β2γ1 oocyte @ 30-fold Ki” value is 1.58.
Take `C[C@@H]1N=C(c2c(F)cccc2F)c2c(ccc(Cl)c2Cl)-n2cc(C#N)nc21` [Example 74, (4S)-7,8-dichloro-6-(2,6-difluorophenyl)-4-methyl-4H-imidazo[1,2-a][1,4]benzodiazepine-2-carbonitrile]: the Ki worked out at 0.7 nM in test [1], 9.6 nM in test [2] (setting [5]), 9.6 nM in test [2] (setting [6]) and 593 nM in test [3]. Further, the “γ2/γ1 Selectivity Ratio” value in test [3] is listed as 61.8. The LogSel in test [3] came to 1.79. Further, the “Efficacy (GABA)%” value in test [4] is listed as 75%. The “Fold increase h-GABA-A α2β2γ1 oocyte @ 30-fold Ki” value in test [4] worked out at 1.75.
